Data taken from patent US20180353445A1, “METHODS AND COMPOSITIONS RELATING TO PROTEASOME INHIBITOR RESISTANCE” (Whitehead Institute for Biomedical Research, priority 2017, published 2018).

Legend:
HepG2 cells = experiment: RNA-seq gene expression profiling, PSMD2 knockdown and control cells; type: cell-based, human; settings: control cells
Experimental: FIGS. 3A-3E: Inhibition of bortezomib-mediated transcriptional responses in PSMD2 knockdown cells. RNA-seq gene expression profiling was conducted on cells that harbor two different shRNAs targeting PSMD2 (PSMD2-1, PSMD2-2) and on control cells (shLacZ). The effects of reducing PSMD2 levels on gene expression were highly correlated in both basal conditions (Pearson's r=0.99) and following bortezomib treatment (Pearson's r=0.94). […] Enrichment was calculated for the indicated gene sets and is presented as a normalized enrichment score (NES). […]
Gene expression analysis—RNA was extracted from triplicate samples and RNA libraries were prepared for sequencing by NEBNext Ultra RNA Library Prep Kit for Illumina (New England BioLabs, Ipswich, Mass.), including the removal of large and small RNA, synthesis of cDNA, and construction of cDNA libraries. […] Libraries were sequenced using Illumina HiSeq 2500, with paired-end 100 bp reads, Paired-end reads were aligned to UCSC human transcriptome 19 (hg19) using TopHat (Bowtie v2.0.9). Alignment quality and read distribute was assessed via SAMtools (v0.1.19) (Li et al., 2009). […] RNA sequencing data have been deposited in the NCBI Sequence Read Archive under accession number: PRJNA281613, […]

IMR32 and Kelly cells = experiment: Viability of IMR32 vs Kelly neuroblastoma cells; type: cell-based, human
Experimental: FIGS. 24A-24C: (FIG. 24A) Plot showing the effect of various concentrations of ABT-263 on IMR32 and Kelly cells. (FIG. 24B) Plot showing effect of various concentrations of disulfiram on IMR32 and Kelly cells. (FIG. 24C) Plot showing effect of various concentrations of elesclomol on IMR32 and Kelly cells. Fold viability refers to the number of viable cells of the indicated type after culture in the presence of the indicated test compound for 72 hours divided by the number of viable cells of that type after culture in the absence of the test compound.
FIG. 28: The relative viability was examined in IMR32 cells and Kelly cells after addition of indicated concentrations of the different BCL2 family inhibitors. ABT-263 (BCL2, BCLXL, MCL1) (upper left panel), ABT-199 (BCL2) (upper right panel), WEHI-539 (BCLXL) (lower left panel), A-1210477 (MCL1) (lower right panel). The relative effect on cell growth was analyzed 72 hours after addition of drugs.

FDX1 = target: T1, FDX1 (Homo sapiens, UniProt P10109); experiment: Electron transfer from reduced FDX1 to the cysteine desulfurase complex; type: biochemical; settings: upon addition of cysteine
T1 construct: made in house
T1 sequence (P10109 62-184): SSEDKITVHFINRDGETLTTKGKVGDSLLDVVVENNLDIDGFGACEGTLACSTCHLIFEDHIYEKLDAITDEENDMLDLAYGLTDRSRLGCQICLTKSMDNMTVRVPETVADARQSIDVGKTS

[1] = target: T2, cysteine desulfurase (NFS1-ISD11-Acp)2 (SDA) (Homo sapiens, UniProt Q9Y697); experiment: Cysteine desulfurase assay (DTT as the reductant); type: biochemical
T2 construct: made in house
Text: Fe—S clusters are generated from sulfur extracted from cysteine by the iron sulfur-cluster (ISC) core complex (NFS1-ISD11-Acp-ISCU)2 and iron. A reductant (FDX1 or FDX2) is required for Fc-S cluster biosynthesis (Lill and Muhlenhoff, 2006; Py and Barras, 2010) (FIG. 53A). To investigate the effect of elesclomol on mitochondrial Fe—S cluster biosynthesis, we utilized in vitro Fe—S cluster assembly assays. […] As further confirmation, we examined the effect of elesclomol on electron transfer from reduced FDX1 to the ISC core complex upon the addition of cysteine.
Cysteine desulfurase assay—The protein samples used in the nisteine desulfurase assay and Fe—S cluster assembly experiments were prepared in an anaerobic chamber (Coy Laboratory) with samples buffer-exchanged extensively prior to the experiments with anaerobic buffer containing 20 mM HEPES at pH 7.6 and 150 mM NaCl (HN buffer). The reaction volumes in all the experiments were kept to […]. […]
The cysteine desulfurase assay reactions (300 μL in HN buffer) contained 10 μM SDA. […] The quenched reaction was incubated for 15 min at room temperature, and then the absorbance at 670 nm was measured and used to estimate the amount of sulfide by comparison to a standard curve obtained from known concentrations of Na2S.

cancer cells = experiment: Cell viability, elesclomol and elesclomol analogs (cell titer-glo); type: cell-based; settings: across a variety of tumor types
Text: In addition to the intrinsic sensitivity of certain cancer cells to elesclomol, as our drug screen indicated, the sensitivity of cancer cells to elesclomol can be further enhanced by forcing them into a Hi-OXPHOS state.
We examined several elesclomol analogs (FIG. 57B) to determine the structural features that are important for mediating its cytotoxicity. […] Substitution of oxygen for even one of the sulfur groups (compound-5) reduced the activity of elesclomol by 300 fold. The loss of activity was even more pronounced (>>300 fold) when both sulfurs were substituted (compound-6) (FIGS. 51C-51D, FIG. 57C). Various other modifications to the elesclomol scaffold were tolerated, as long as the core sulfur geometry remained intact.
Cell viability—where indicated relative cell number following different drug treatment was conducted by plating cells at 1000 cells/well in 384 well plates. Indicated concentrations of compounds were added 24 hour after plating at least in triplicate for each condition. Viability was measured 72 hours after drug addition using cell titer-glo (Promega) according to manufactures protocol. […]

T2 sequence (Q9Y697 56-457): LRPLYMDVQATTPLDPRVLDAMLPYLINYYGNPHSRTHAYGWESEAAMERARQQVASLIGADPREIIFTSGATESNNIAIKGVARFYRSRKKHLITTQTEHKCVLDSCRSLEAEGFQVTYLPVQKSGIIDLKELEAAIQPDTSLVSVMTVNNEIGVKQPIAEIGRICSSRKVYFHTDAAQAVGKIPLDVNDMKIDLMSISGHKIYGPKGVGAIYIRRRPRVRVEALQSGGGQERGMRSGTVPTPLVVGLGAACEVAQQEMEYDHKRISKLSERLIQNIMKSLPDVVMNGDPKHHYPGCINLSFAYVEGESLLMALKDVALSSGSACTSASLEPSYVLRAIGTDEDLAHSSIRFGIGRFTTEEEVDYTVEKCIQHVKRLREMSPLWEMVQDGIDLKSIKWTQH
T2 sequence (P0A6A8 2-78, further chain): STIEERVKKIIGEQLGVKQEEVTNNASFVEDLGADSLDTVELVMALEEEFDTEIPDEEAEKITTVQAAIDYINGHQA
T2 sequence (Q9HD34 whole entry, further chain): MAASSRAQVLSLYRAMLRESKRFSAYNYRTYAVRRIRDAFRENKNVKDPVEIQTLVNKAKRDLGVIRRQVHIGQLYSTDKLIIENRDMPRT

CC(C)C[C@H](NC(=O)[C@H](Cc1ccccc1)NC(=O)c1cnccn1)B(O)O [bortezomib]
transcriptional response (HepG2 cells): sharp increase in stress-response transcripts | resistance of IMR32 cells compared to Kelly cells (IMR32 and Kelly cells): increased resistance

CN(NC(=O)CC(=O)NN(C)C(=S)c1ccccc1)C(=S)c1ccccc1 [elesclomol]
electron transfer from reduced FDX1 to the cysteine desulfurase complex (FDX1): inhibits electron transfer | effect on cysteine desulfurase activity [1]: no inhibitory effect | inhibition of cancer cell growth (cancer cells): potent inhibitor of cancer cell growth
